Source: patent US9329170B2, “Single cell gene expression for diagnosis, prognosis and identification of drug targets” (The Board of Trustees of the Leland Stanford Junior …, priority 2009, dated 2016)

Tested on: murine breast cancer stem cells
Experiment: clonogenic ability of murine breast cancer stem cells
Type: cell-based
Conditions: short, 24 hour exposure to the inhibitor; p<0.02, t test
Description: Many of these genes have been linked to self renewal and cancer. These include the insulin growth factor binding partner IGFBP3, the HOX family members HOXA3, HOXA5, ME1S1 as well as transcription factors like ETS1, ETS2, RUNX2 and STAT3. It was tested whether the transcription factor STAT3 is a bona fide cancer stem cell regulator. STAT3 plays a role in the maintenance of both ES cells and HSCs. […] Next, when we examined immunochemistry analysis of breast tumors the STAT3 positive cells tended to be concentrated on the invasive edge of the cancer and the protein was not seen in the more differentiated-looking cells in the interior parts of tumors. Finally, there are small molecule inhibitors of STAT3. Such inhibitors can be tested in cancer stem cell models. The effect of the STAT3 inhibitor cucurbitacin on the clonogenic ability of murine breast cancer stem cells was tested.

cucurbitacin
reduction of the number of colonies: ~50%
